In this test the test system is radial artery. Put plainly: Radial artery diameter measured with ultrasound after topical application to the wrist. It counts as in vivo, human. As to conditions: for effect on the vasodilatory action of nitroglycerin: adjacent skin sites. The protocol:
A dose escalation study of topical nitroglycerin was performed. Twenty healthy volunteers were selected based on the following inclusion criteria: willing and able to give written informed consent and comply with study requirements; and able to speak English. In addition, the subjects were selected based on the following exclusion criteria: presence or history of liver, cardiovascular, rheumatologic, cancer or renal disease; current treatment with any vasodilator therapy; systolic blood pressure of less than 90 mmHg; history of radial artery catheterization within the previous year; absence of radial artery blood flow in one or both arms; pregnancy; and active infection.
Each of the twenty selected subjects received either 15 mg or 30 mg of nitroglycerin (Nitro-Bid 2% ointment, 1 or 2 inches, E Fougera & Co, NY) applied to one wrist and a placebo (sorbolene cream) applied to the other wrist. Applications were performed as single-blind (subject) experiments. Radial artery diameter was measured with ultrasound before application of the topical compositions and at time intervals after application of the topical compositions. The subjects were tested again at a later date, where they received the alternate dose of nitroglycerin on one wrist and the placebo on the other wrist.
The same subjects received topical applications of nitroglycerin (30 mg) with either 20 mg or 40 mg of lidocaine topical cream (LMX 4%, Ferndale, Mich.). The nitroglycerin and lidocaine were applied at adjacent skin sites on the wrist.

“Also recorded” adds a separate entry of the source.

`CCN(CC)CC(=O)Nc1c(C)cccc1C` [lidocaine]: the “effect on the vasodilatory action of nitroglycerin” value (20 mg lidocaine topical cream with 30 mg nitroglycerin, FIG. 2) is recorded as “no detectable effect” and the “effect on the vasodilatory action of nitroglycerin” value (40 mg lidocaine topical cream with 30 mg nitroglycerin, FIG. 3) is listed as “did not prevent the vasodilation; also recorded: no detectable effect”. Also, for the setting “lidocaine alone, topical, FIG. 3”, the “effect on arterial diameter” value is “no appreciable effect”.

Take `O=[N+]([O-])OCC(CO[N+](=O)[O-])O[N+](=O)[O-]` [nitroglycerin]: the “increase in radial artery diameter compared to the placebo” value (15 mg nitroglycerin topical on one wrist, healthy volunteers, FIG. 1) was “did not significantly increase”. The “increase in radial artery diameter” value (30 mg nitroglycerin topical on one wrist, healthy volunteers, FIG. 1) is on record as “approximately 25%”. Besides, for the setting “30 mg nitroglycerin topical, 2-hour application”, the “duration of the increase in radial artery diameter” value was “maintained during the 2-hour application”. For the setting “30 mg nitroglycerin topical, FIG. 1”, the “vasodilation (radial artery diameter versus time)” value is on record as “significant vasodilation”. Further, under “topical nitroglycerin on the other wrist”, the “diameter of the radial artery in the contralateral wrist” value was “did not affect”.

The record behind these values is patent US9302085B2, “Methods and compositions for facilitating arterial access” (The Regents of the University of California, priority 2009, dated 2016).
